We go through 3 compounds from US8765693B2, “Method of inhibiting premature aging of human skin caused by exposure to infrared radiation” (L'Oreal, priority 2012, dated 2014).

The test system of this test is IRA induced MMP-1. Briefly: IRA-induced MMP-1 mRNA expression in primary human dermal fibroblasts. In kind it is cell-based. As to conditions: for Effects in IRA treated cells: inhibition (MMP-1 mRNA): 24 hrs pre-incubation, 360 J/cm^2 Infrared A, harvested 24 hrs after irradiation; for Effect on IRA induced MMP-1 in vitro (in words): primary human dermal fibroblasts. As for the experimental part:
Primary Human Dermal Fibroblasts
Hydrosun 500H IRA device (Hydrosun Medizintechnik GmbH, Müllheim, Germany). The IRA device was water-filtered and equipped with a black filter and emits wavelengths between 760 and 1400 nm leading to an irradiance of 360 mW/cm^2.
Baicalin: stock 44.8 mM in DMSO, and diluted to 10 μM, 25 μM
Phloretin: stock 50 mM in DMSO, and diluted to 1 μM, 5 μM, and 10 μM as final treatment conditions.
Neohesperidin dihydrochalcone: stock 710 mM in DMSO, and diluted to 100 μM, 500 μM, and 1 mM as final treatment conditions.
Cells were incubated for 24 hrs after irradiation, and then harvested to have MMP-1 mRNA analyzed.

For the compound `O=C(O)[C@H]1O[C@@H](Oc2cc3oc(-c4ccccc4)cc(=O)c3c(O)c2O)[C@H](O)[C@@H](O)[C@@H]1O` [Baicalin], the “Effect on IRA induced MMP-1 in vitro (in words)” value (“Effect … (in words)” for short) is listed as “reduced IRA induced MMP-1”. Further, for the setting “10 μM”, the “Effects in IRA treated cells: inhibition (MMP-1 mRNA)” value (“Effects … inhibition (MMP-1 mRNA)” for short) is listed as 26% inhibition with 10 μM. Besides, the “Effects … inhibition (MMP-1 mRNA)” value (25 μM (0.001%)) is given as 100% inhibition with 25 μM+ (0.001%).

On to `COc1ccc(CCC(=O)c2c(O)cc(O[C@@H]3O[C@H](CO)[C@@H](O)[C@H](O)[C@H]3O[C@@H]3O[C@@H](C)[C@H](O)[C@@H](O)[C@H]3O)cc2O)cc1O` [Neohesperidin dihydrochalcone], for which the “Effect … (in words)” value is on record as “reduced IRA induced MMP-1”. Further, the “Effects … inhibition (MMP-1 mRNA)” value (100 μM (0.006%)) was 100% inhibition with 100 μM+ (0.006%). The “Effects … inhibition (MMP-1 mRNA)” value (500 μM (0.03%)) was 100% inhibition with 500 μM+ (0.03%). For the same compound, where the note is “1 mM (0.06%)”, the “Effects … inhibition (MMP-1 mRNA)” value is on record as 100% inhibition with 1 mM+ (0.06%).

Regarding `O=C(CCc1ccc(O)cc1)c1c(O)cc(O)cc1O` [Phloretin], the “Effect … (in words)” value is on record as “reduced IRA induced MMP-1”. Also, the “Effects … inhibition (MMP-1 mRNA)” value (1 μM (0.00002%)) was 22% inhibition with 1 μM+ (0.00002%). Also, the “Effects … inhibition (MMP-1 mRNA)” value (5 μM (0.00014%)) is listed as 78% inhibition with 5 μM+ (0.00014%). Moreover, the “Effects … inhibition (MMP-1 mRNA)” value (10 μM) is listed as 68% inhibition with 10 μM+ (0.0028%).
